According to ChEMBL document CHEMBL1201862, “PubChem BioAssay data set” (2004):
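Values below derive from 48-hour exposures of cells grown in 96-well plates, with endpoints linearly interpolated between the two concentrations bracketing the appropriate inhibition level. At the GI50, growth is halved.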 Calls of active or inactive are those of the source. Cut-off read from the data, not from the text of the source: active = GI50 up to about 1.1 µM and inactive = higher. Where a SMILES comes first, the peptide text is derived from it. The star is where a group is joined. Boc = CC(C)(C)OC(=O)*; OSu = O=C1CCC(=O)N1O*

Experiments:
Assay in all cases: DTP human tumour cell line panel, 48 h
CAKI-1 = test system: CAKI-1
DU-145 = test system: DU-145
HCT-116 = test system: HCT-116
HCT-15 = test system: HCT-15
HOP-62 = test system: HOP-62
KM12 = test system: KM12
MOLT-4 = test system: MOLT-4
NCI-H226 = test system: NCI-H226
NCI-H522 = test system: NCI-H522
OVCAR-3 = test system: OVCAR-3
PC-3 = test system: PC-3
RXF 393 = test system: RXF 393
SK-MEL-5 = test system: SK-MEL-5
SN12C = test system: SN12C
SNB-19 = test system: SNB-19
SW-620 = test system: SW-620
HCC 2998 = test system: HCC 2998
HOP-92 = test system: HOP-92
SK-MEL-28 = test system: SK-MEL-28

Structure (SMILES) | GI50 (CAKI-1) | GI50 (DU-145) | GI50 (HCT-116) | GI50 (HCT-15) | GI50 (HOP-62) | GI50 (KM12) | GI50 (MOLT-4) | GI50 (NCI-H226) | GI50 (NCI-H522) | GI50 (OVCAR-3) | GI50 (PC-3) | GI50 (RXF 393) | GI50 (SK-MEL-5) | GI50 (SN12C) | GI50 (SNB-19) | GI50 (SW-620) | GI50 (HCC 2998) | GI50 (HOP-92) | GI50 (SK-MEL-28)
c1ccc(-c2nnn3c2NC2=C(CCCC2)C3c2ccccc2)cc1 (stereo not given) | 18.2 µM (inactive) | 17.7 µM (inactive) | 12 µM (inactive) | 1.54 µM | 16.4 µM (inactive) | 15.5 µM (inactive) | 0.425 µM (active) | 27.4 µM (inactive) | 5.68 µM (inactive) | 18.4 µM (inactive) | 16.9 µM (inactive) | 17.1 µM (inactive) | 14.2 µM (inactive) | 21.1 µM (inactive) | 33.8 µM (inactive) | 12.5 µM (inactive) | – | – | –
CCCCOC(=O)C1CN2C=CC=NC2=NC1(C(F)(F)F)C(F)(F)F (stereo not given) | > 100 µM (inactive) | > 100 µM (inactive) | > 100 µM (inactive) | > 100 µM | > 100 µM (inactive) | > 100 µM (inactive) | > 100 µM (inactive) | > 100 µM (inactive) | – | > 100 µM (inactive) | > 100 µM (inactive) | > 100 µM (inactive) | > 100 µM (inactive) | > 100 µM (inactive) | > 100 µM (inactive) | > 100 µM (inactive) | > 100 µM (inactive) | > 100 µM (inactive) | > 100 µM (inactive)
Cc1nc2c(=O)n(C)ncc2[nH]1 | > 100 µM (inactive) | > 100 µM (inactive) | > 100 µM (inactive) | > 100 µM | > 100 µM (inactive) | > 100 µM (inactive) | > 100 µM (inactive) | > 100 µM (inactive) | – | > 100 µM (inactive) | > 100 µM (inactive) | > 100 µM (inactive) | > 100 µM (inactive) | > 100 µM (inactive) | > 100 µM (inactive) | > 100 µM (inactive) | – | – | > 100 µM (inactive)
CC(C)(C)OC(=O)NC(Cc1ccc(O)cc1)C(=O)NC(CCCCN)C(=O)NC(Cc1ccc(O)cc1)C(=O)NC(CCCCN)C(=O)ON1C(=O)CCC1=O (stereo not given) (Boc-YKYK-OSu; configuration not given here) | – | – | > 100 µM (inactive) | > 100 µM | > 100 µM (inactive) | > 100 µM (inactive) | > 100 µM (inactive) | > 100 µM (inactive) | – | – | > 100 µM (inactive) | > 100 µM (inactive) | > 100 µM (inactive) | > 100 µM (inactive) | > 100 µM (inactive) | > 100 µM (inactive) | > 100 µM (inactive) | > 100 µM (inactive) | > 100 µM (inactive)
CCc1ccc(Nc2cc(=O)n(C)c(SCc3ccccc3)n2)cc1 | > 100 µM (inactive) | > 100 µM (inactive) | 18.2 µM (inactive) | 62.2 µM | 69.3 µM (inactive) | 66.4 µM (inactive) | > 100 µM (inactive) | 33.4 µM (inactive) | 36.1 µM (inactive) | 29.4 µM (inactive) | – | 23.1 µM (inactive) | 51.2 µM (inactive) | 20 µM (inactive) | 52.6 µM (inactive) | 41.6 µM (inactive) | – | 20.3 µM (inactive) | –
CC(C)CN1CN(c2ccccc2)C2(CCN(CC(C)(c3ccc(F)cc3)C3OCCO3)CC2)C1=O (stereo not given) | 12.1 µM (inactive) | 4.1 µM (inactive) | 4.51 µM (inactive) | 3.27 µM | 3.45 µM (inactive) | 3.72 µM (inactive) | 2.4 µM (inactive) | 11.1 µM (inactive) | 3.96 µM (inactive) | 10.3 µM (inactive) | 3.55 µM (inactive) | 6.25 µM (inactive) | 2.02 µM (inactive) | 5.75 µM (inactive) | 7.21 µM (inactive) | 3.17 µM (inactive) | 2.39 µM (inactive) | – | 3.18 µM (inactive)
Cc1nc2cc([N+](=O)[O-])ccc2c(NCCCN(C)C)c1C | 20.3 µM (inactive) | 21.7 µM (inactive) | 4.68 µM (inactive) | 14.7 µM | 10.9 µM (inactive) | 6.05 µM (inactive) | 1.91 µM (inactive) | 5.08 µM (inactive) | 3.61 µM (inactive) | 6.31 µM (inactive) | 4.71 µM (inactive) | 11.1 µM (inactive) | 10.1 µM (inactive) | 11.4 µM (inactive) | – | 5.3 µM (inactive) | – | 1.95 µM (inactive) | 50.5 µM (inactive)
CC(=O)Nc1ccc(S(=O)(=O)N/N=C/CN2C(=O)c3ccccc3C2=O)cc1 | > 100 µM (inactive) | – | > 100 µM (inactive) | > 100 µM | > 100 µM (inactive) | > 100 µM (inactive) | > 100 µM (inactive) | > 100 µM (inactive) | > 100 µM (inactive) | – | – | 85.1 µM (inactive) | > 100 µM (inactive) | > 100 µM (inactive) | > 100 µM (inactive) | > 100 µM (inactive) | > 100 µM (inactive) | – | –
